Values quoted from earlier work as cited in US6596297B2, “Biodegradable microbicidal vaginal barrier device” (New York Blood Center, Inc., priority 2002, dated 2003).

Test system: HIV-1

Question: Which “risk of sexual transmission of HIV-1” value does the source give for Nonoxynol-9 [N-9] here?
Answer: increase the risk of sexual transmission of HIV-1
